Assay results taken from ChEMBL document CHEMBL3425399, “Progress in discovery of small-molecule modulators of protein-protein interactions via fragment screening” (Bioorg Med Chem Lett, 2015).

Key:
[1] = target: T1, DNA repair protein RAD51 homolog 1 (Homo sapiens, UniProt Q06609); assay: Binding affinity to RAD51 (unknown origin) by isothermal calorimetry
T1 sequence (Q06609 whole entry): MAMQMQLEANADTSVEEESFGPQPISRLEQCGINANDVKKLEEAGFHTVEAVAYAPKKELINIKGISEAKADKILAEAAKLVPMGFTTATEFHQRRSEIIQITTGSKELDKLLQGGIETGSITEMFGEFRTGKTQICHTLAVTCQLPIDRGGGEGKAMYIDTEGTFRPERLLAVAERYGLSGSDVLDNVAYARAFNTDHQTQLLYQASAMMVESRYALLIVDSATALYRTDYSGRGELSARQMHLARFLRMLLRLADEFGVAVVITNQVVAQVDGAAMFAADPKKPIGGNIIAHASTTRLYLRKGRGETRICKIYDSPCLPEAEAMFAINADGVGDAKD

GTPase KRas = GTPase KRas (Homo sapiens, UniProt P01116); assay: Binding affinity to KRas (unknown origin)
Hepatitis C virus = assay: Antiviral activity against HCV by cell based viral replicon assay; format: functional, organism-based, Hepacivirus hominis
Hepacivirus hominis [2] = assay: Inhibition of HCV NS3 protease at 0.01 uM by FRET assay
Hepacivirus hominis [3] = assay: Inhibition of HCV NS3 protease at 500 uM by FRET assay

Chain of GTPase KRas (P01116 whole entry): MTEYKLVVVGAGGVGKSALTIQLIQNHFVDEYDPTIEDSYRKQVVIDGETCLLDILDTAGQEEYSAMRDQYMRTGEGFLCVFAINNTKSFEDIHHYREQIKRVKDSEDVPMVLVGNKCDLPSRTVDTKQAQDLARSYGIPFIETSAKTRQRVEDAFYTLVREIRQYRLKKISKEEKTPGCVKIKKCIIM

Kd [1] [µM]	SMILES	further results
3	O=C(N[C@@H](Cc1c[nH]c2ccccc12)C(=O)OCCc1ccccc1)c1ccccc1	–
–	CC[C@H](C)[C@H](N)C(=O)Nc1ccc2nc(Cc3c[nH]c4ccccc34)[nH]c2c1	Kd (GTPase KRas): 190 µM
1.3	O=S(=O)(NCCc1c[nH]c2ccccc12)c1cc(Br)c(Cl)s1	–
–	CC[C@@H](N[C@@H](C)CC(=O)NCCN)c1ccc(Cl)c(Oc2ccccc2)c1F	EC50 (Hepatitis C virus): 0.008 µM; inhibition (Hepacivirus hominis [2]): 68%
35	N[C@@H](Cc1c[nH]c2ccccc12)C(=O)OCCc1ccccc1	–
–	NCc1ccc(Oc2ccccc2)cc1	inhibition (Hepacivirus hominis [3]): 55%
2100	Oc1ccc2[nH]ccc2c1	–
570	COC(=O)[C@@H](N)Cc1c[nH]c2ccccc12 [TRYPTOPHAN METHYL ESTER]	–
–	Cc1[nH]c2ccccc2c1Cc1nc2ccccc2[nH]1	Kd (GTPase KRas): 2000 µM
